This note sets out measurements from the NIST ThermoML archive (doi:10.1016/j.fluid.2013.10.060).

± gives the expanded uncertainty stated by the source.

For series [1] the following is noted: for mass density: 298.15 K, 101.33 kPa, Liquid, Vibrating tube method; for surface tension liquid-gas: 303.15 K, Maximal bubble pressure.
A short description of series [2]: Boiling temperature at pressure P. To be noted: 101.33 kPa; Liquid; Ebulliometric method (Recirculating still).
The nature of series [3]: refractive index (Na D-line) (dimensionless). The settings on record: 298.15 K; 101.33 kPa; Liquid; Standard Abbe refractometry.

As a reminder, the mass density is the mass of a sample divided by its volume. By surface tension liquid-gas is commonly meant the force per length acting along the surface. For orientation: refractive index means the speed of light in vacuum divided by its phase velocity in the sample. `CCO` [ethanol]: in series [1], the mass density turned out to be 785.09 ± 0.15 kg/m3 and the surface tension liquid-gas turned out to be 21.7 ± 0.18 mN/m. The “Boiling temperature at pressure P” value in series [2] is 78.30 ± 0.02 °C. The refractive index in series [3] amounted to 1.36068 ± 0.00031.
Regarding `CCCCCC` [hexane], in series [1], the mass density was determined as 655.19 ± 0.18 kg/m3 and the surface tension liquid-gas is on record as 17.4 ± 0.16 mN/m. For the same compound, the refractive index in series [3] was determined as 1.37374 ± 0.00031.
Take `C1CCOCC1` [tetrahydropyran]: in series [1], the mass density was found to be 879.03 ± 0.13 kg/m3 and the surface tension liquid-gas is 27.1 ± 0.2 mN/m. The “Boiling temperature at pressure P” value in series [2] came to 88.21 ± 0.02 °C. Further, the refractive index in series [3] is on record as 1.42 ± 0.00031.
